Target: T1, bovine serum albumin (BSA) (Bos taurus, UniProt P02769)
T1 construct: gene ALB
Assay: fluorescence emission titration (BSA quenching, excitation […] nm), double-log plot; value is Ka, n = […]
Format: binding
Details: read-out: fluorescence emission titration (BSA quenching, excitation 287 nm), double-log p (converted)

T1 sequence (P02769 25-607): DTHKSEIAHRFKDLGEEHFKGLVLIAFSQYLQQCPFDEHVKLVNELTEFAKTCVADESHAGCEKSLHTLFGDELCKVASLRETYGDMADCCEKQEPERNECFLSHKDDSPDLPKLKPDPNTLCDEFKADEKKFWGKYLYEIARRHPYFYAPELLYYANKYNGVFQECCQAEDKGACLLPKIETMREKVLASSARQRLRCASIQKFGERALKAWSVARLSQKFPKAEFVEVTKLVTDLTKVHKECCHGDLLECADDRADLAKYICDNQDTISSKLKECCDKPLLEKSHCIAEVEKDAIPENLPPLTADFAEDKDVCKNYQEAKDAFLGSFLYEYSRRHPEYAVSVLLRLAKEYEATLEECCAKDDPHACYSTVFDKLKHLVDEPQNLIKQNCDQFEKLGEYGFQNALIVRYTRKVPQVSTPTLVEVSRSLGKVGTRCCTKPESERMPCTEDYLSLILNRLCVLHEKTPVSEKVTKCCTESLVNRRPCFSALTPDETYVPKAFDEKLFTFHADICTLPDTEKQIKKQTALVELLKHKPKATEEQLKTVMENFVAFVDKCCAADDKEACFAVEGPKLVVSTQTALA

Kd: 164 nM
SMILES: C=CCN1C(=O)C(=CC(=O)c2cccc(N)c2)c2ccccc21 [4d, 1-Allyl-3-(2-(3-aminophenyl)-2-oxoethylidene)indolin-2-one]

— publication PMC10518658, “Dual activity of indolin-2-ones containing an arylidene motif: DNA and BSA interaction” (RSC Advances, 2023)
